Counter-ions that a name gives are not always drawn. Like-named read-outs stand apart in the source and are kept apart here.
Tests used:
depressed FSL rats = experiment: Thermographic measurement of genital temperature in female rats; format: in vivo, rat
Description: (§1) Animals: The experimental setup was run in two different sets of measurement procedures to avoid a variation given by each other. The first set of experiments was run in control female rats, and the second set was run in a depressed model called Flint Sensitive Line (FSL), which shares molecular similarities to major depressive patients.
(§2) Anesthesia and general surgical procedure: The rats were injected intraperitoneally with pentobarbital 50 mg/Kg. After 10 min in dark conditions a pinch of the interdigital area confirmed unresponsive of reflexes and the animal was prepared on a table, where legs were semi-extended by tape to fix the animal. The areas of interest (abdomen-inguinal and neck) were shaved and clean-disinfected with water and ethanol. After each study was completed, the animal was sacrificed by an overdose of pentobarbital, and the Atlanto-occipital joint was severed to guarantee a painless procedure for the animal.
A thermographic FLIR camera (E96, InfraTec, Germany, FIG. 1) was positioned at 50 cm distance from the area of interest (FIG. 1C). Three areas (thorax, vagina, and urethral-clitoris) of interest were recorded by digital markers positioned using the Research Studio-FLIR, and data were extracted and imported to Excel.

[1] = molecular target: T1, noradrenaline (NA) reuptake in synaptosomes (Rattus norvegicus, UniProt Q63380); conditions: reported in U.S. Pat. No. 9,133,184 B1; cited from earlier work
T1 construct: in synaptosomes as described in WO 97/16451; from tissue

[2] = test system: female Sprague Daley rats; experiment: Mean arterial pressure and heart rate in anaesthetized female rats; format: in vivo, rat; conditions: infusion 0.3 to 10 mg/kg, versus vehicle
Description: Measurements mean arterial pressure and heart rate: The anaesthetized rats breathed spontaneously and body temperature was monitored continuously, and maintained at 37.5° C. by placing them on a heating blanket. A heparinized (100 IE mL-1) polyethylene (PE) catheter (PE-50) connected to a pressure transducer (Disposable BP Transducer, AD Instruments, UK) was introduced into the carotid artery to measure MAP. Following a stabilization period of 10-20 min, continuous direct measurements of mean arterial pressure (MAP) and heart rate (HR) were obtained, registered, and analysed on a computerized data acquisition system (PowerLab, ADInstruments).

[3] = molecular target: T2, dopamine (DA) reuptake in synaptosomes (Rattus norvegicus, UniProt P23977); experiment: Inhibition of dopamine (DA) reuptake in synaptosomes; format: biochemical; conditions: 3H-DA, read-out: DA-uptake IC50
T2 construct: in synaptosomes as described in WO 97/16451; from tissue
Description: (§3) Compounds were tested for their ability to inhibit the reuptake of the monoamine neurotransmitters dopamine (DA), noradrenaline (NA), and serotonin (5-HT) in synaptosomes as described in WO 97/16451 (NeuroSearch A/S).
(§4) The test values are given as IC50 (the concentration (μM) of the test substance which inhibits the specific binding of ^3H-DA, ^3H-NA, or ^3H-5-HT by 50%).

[4] = molecular target: T1, noradrenaline (NA) reuptake in synaptosomes; experiment: Inhibition of noradrenaline (NA) reuptake in synaptosomes; format: biochemical; conditions: 3H-NA, read-out: NA-uptake IC50
Description: as §3, §4

[5] = test system: female Sprague Daley rats; experiment: Laser Doppler measurement of clitoral blood flow in anaesthetized female rats; format: in vivo, rat
Description: as §1, §2
Measurements of clitoral blood flow and genital temperature: A suture Nylon 4-0 with a needle was used to extend the urethra opening and expose the mucosa. […] A calibrated laser Doppler flow probe (VP1T, Moor instruments-UK) was used to measure on the front-side of the clitoris, which was connected to the laser Doppler flow monitor; MOORVMS-LDF2 (Moor instruments-UK). A laser Doppler probe was positioned and fixed to a base and a crocodile clamp in order to avoid any movement. The tip of the calibrated probe was immersed in a water-based gel in the exposed area of the urethra-clitoris (FIG. 1B).
A calibrated laser Doppler flow probe (VP1T, Moor instruments-UK) was used to measure on the front-side of the clitoris, which was connected to the laser Doppler flow monitor; MOORVMS-LDF2 (Moor instruments-UK). […] The infusion protocol was performed in sets of 1 min infusion +4 min of further recording of blood flow changes recorded by the system. Electrical field stimulation of the cavernous nerve to the clitoris was utilized as a positive control as described below.
Measurements of clitoral blood flow following electrical stimulation of the cavernous nerve to the clitoris: Through a lower abdominal incision, the cavernous nerve to clitoris was isolated, and electrical stimulation was performed with a slender bipolar platinum electrode, which was connected to a S48 stimulator (Grass Instrument Co., Boston, MA, U.S.A.). To investigate whether stimulation of the nerve leads to hemodynamic changes in the clitorial tissue, the nerve was stimulated as previously described for male rats, with parameters eliciting the maximum amplitude of response (square wave pulses of 6 Volts, 10 Hz, 1 ms for 30 s), and flow was measured with laser Doppler. Clitoral blood flow was measured via laser Doppler as aforementioned.

[6] = molecular target: T2, dopamine (DA) reuptake in synaptosomes; conditions: reported in U.S. Pat. No. 9,133,184 B1; cited from earlier work
[7] = test system: Female Sprague Dawley rats; experiment: Sexual (paracopulatory) behaviour of estrus-synchronized female rats paired with male rats; format: in vivo, rat
Description: Animals: Female Sprague Dawley rats (12-15 weeks old) were housed in the animal facility in Universal Euro Ill type long width cages with standard wood bedding and space for 2 rats with a clean environment, and a comfortable temperature (22-23° C.) with 12:12 h light-dark cycle starting at 11 am and they had free access to food and tap water.
Synchronization of the sexual cycle in estrus of female rats: Female Sprague Dawley rats with an average weight of 250 g were synchronized in the estrus phase of the sexual cycle by injecting with 250 μg prostaglandin F2α (PGF2α) subcutaneously at day 0 and day 3.
To investigate the sexual behavior, the synchronized female rats were paired with trained male rats and behaviour recorded by two cameras. The videos were quantified by a trained operator blinded for the treatments.
Data analysis and statistics: Statistical differences between vehicle, apomorphine and two different doses of IP2015 were analysed using one-way analysis of variance (ANOVA) followed by Tukey post-test. The assumptions of the models were investigated by inspecting Q-Q plots and data were logarithmically transformed when necessary in order to generate a Gaussian-distributed data set. In case where the data were skewed, the Brown-Forsythe test was applied. The ROUT method (Q=1%) was used to exclude data from the analysis. A P<0.05 was considered statistically significant. Post-tests were only done if F was significant and there was no variance inhomogeneity. All statistical analyses were performed using GraphPad Prism 9.5 software (GraphPad Software, CA, USA).

[8] = depressed FSL rats, infusion of increasing doses 0.3-10 mg/Kg, thermography 4x zoom
[9] = infusion 0.3 to 10 mg/kg via jugular vein
[10] = infusion 0.3 to 10 mg/kg via jugular vein, laser Doppler

T1 sequence (Q63380 1-617): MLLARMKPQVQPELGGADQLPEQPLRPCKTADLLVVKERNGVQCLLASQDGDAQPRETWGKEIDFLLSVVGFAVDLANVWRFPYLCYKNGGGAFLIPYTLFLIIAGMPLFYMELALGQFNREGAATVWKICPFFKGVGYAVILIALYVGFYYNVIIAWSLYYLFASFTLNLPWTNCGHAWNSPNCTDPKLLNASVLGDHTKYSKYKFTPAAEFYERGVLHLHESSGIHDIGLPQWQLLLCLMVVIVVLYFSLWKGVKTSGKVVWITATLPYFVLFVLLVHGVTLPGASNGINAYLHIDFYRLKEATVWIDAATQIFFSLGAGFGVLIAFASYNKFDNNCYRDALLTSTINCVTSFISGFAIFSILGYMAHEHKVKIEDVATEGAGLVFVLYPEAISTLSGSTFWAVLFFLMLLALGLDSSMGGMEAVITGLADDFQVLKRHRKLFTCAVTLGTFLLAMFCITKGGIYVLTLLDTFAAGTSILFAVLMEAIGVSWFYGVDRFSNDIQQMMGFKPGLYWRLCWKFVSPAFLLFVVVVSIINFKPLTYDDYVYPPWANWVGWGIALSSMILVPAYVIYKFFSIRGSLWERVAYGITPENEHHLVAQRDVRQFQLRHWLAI
T2 sequence (P23977 whole entry): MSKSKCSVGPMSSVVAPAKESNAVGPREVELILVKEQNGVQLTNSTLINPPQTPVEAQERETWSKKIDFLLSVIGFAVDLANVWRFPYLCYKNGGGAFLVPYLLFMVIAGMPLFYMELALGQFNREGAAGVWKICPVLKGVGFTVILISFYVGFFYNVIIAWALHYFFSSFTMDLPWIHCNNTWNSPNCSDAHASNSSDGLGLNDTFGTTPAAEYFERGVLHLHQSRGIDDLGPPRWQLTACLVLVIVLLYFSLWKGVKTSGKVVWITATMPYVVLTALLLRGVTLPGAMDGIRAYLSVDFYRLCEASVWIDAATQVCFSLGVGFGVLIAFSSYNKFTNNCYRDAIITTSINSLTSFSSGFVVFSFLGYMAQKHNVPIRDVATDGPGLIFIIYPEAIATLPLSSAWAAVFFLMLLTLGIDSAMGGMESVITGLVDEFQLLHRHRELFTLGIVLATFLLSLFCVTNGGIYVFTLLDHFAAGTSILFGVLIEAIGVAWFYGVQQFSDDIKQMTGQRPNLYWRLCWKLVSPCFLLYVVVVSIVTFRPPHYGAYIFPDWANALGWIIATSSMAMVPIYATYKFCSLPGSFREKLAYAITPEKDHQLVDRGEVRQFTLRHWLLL

| SMILES | temperature in the clitoral area (depressed FSL rats; [8]) | temperature in the vagina (depressed FSL rats; [8]) | core temperature (anal thermometer) (depressed FSL rats; during infusion of IP2015) | IC50 [1] [nM] | heart rate (HR) [2] | mean arterial pressure (MAP) [2] | IC50 [3] [nM] | IC50 [4] [nM] | average clitoral blood flow compared to vehicle [5, 9] | peak clitoral blood flow compared to vehicle [5, 9] | duration of blood flow in the clitoral area [5, 10] | frequency of blood flow in the clitoral area [5, 10] | magnitude of blood flow in the clitoral area [5, 10] | Peak clitoral blood flow following infusion ([5]; laser Doppler trace, electrical stimulation of cavernous nerve gave 4.31 V) [V] | IC50 [6] [nM] | number of hops compared to apomorphine ([7]; 10 mg/kg) | darts compared with vehicle and apomorphine ([7]; 1 and 10 mg/kg) | ear wiggling ([7]; single injection, 1 and 10 mg/kg) | paracopulatory parameters (hops, ear wiggling, darts) ([7]; 0.25 mg/kg) |
| --- | --- | --- | --- | --- | --- | --- | --- | --- | --- | --- | --- | --- | --- | --- | --- | --- | --- | --- | --- |
| COc1cc2ccc(O[C@@H]3C[C@H]4CC[C@@H](C3)N4)cc2oc1=O [IP2015, exo-7-[(8-azabicyclo[3.2.1]octan-3-yl)oxy]-3-methoxy-chromen-2-one hydrochloride] | dose-dependent increases | dose-dependent increases | unchanged | 3.8 | significantly increased | comparable to vehicle | 70 | 3.8 | significantly increased | significantly increased | increased | increased | increased | 4.49 | 70 | increased | dose-dependently increased | did not change |  |
| CN1CCc2cccc3c2[C@H]1Cc1ccc(O)c(O)c1-3 [apomorphine, reference compound] |  |  |  |  |  |  |  |  |  |  |  |  |  |  |  |  |  |  | did not change |
